Test: Zeta potential of emulsion surface
Type: physicochemical
Details: 0.02% BAK and 0.002% CKC in emulsion
Excerpt: All the eye drops were supplied by Novagali Pharma (Evry, France) and were sterile with physiological pH and osmolality. The present Applicants chose to compare 0.02% BAK to 0.002% CKC since these two QAC concentrations confer equivalent positive charge to the emulsion surface (zeta potential around 20 mV).

CCCCCCCCCCCCCCCC[N+](C)(C)Cc1ccccc1 [Cetalkonium chloride, cetalkonium chloride]
zeta potential: around 20 mV
